System: asthmatic rats
Assay: Ovalbumin-induced asthma rat model (HE staining, lung tissue inflammation area, airway inflammation score)
Format: in vivo, SD rats
Description: 4. Effects of Compounds on Ovalbumin-Induced Asthma in Mouse and Rat Models
SPF-grade SD male rats (purchased from Zhejiang Academy of Medical Sciences, license number SCXK (Zhejiang) 2019-0002) with a body weight of 160-180 g; and SPF-grade female BABL/c mice (purchased from Zhejiang Weitong Lihua Experimental Animals Technology Co., Ltd., license number SCXK (Zhejiang) 2019-0001) with a body weight of 16-18 g were used. The above animals were raised by the Experimental Animal Center of Zhejiang Academy of Traditional Chinese Medicine.
Formulation of compound solution: compound was vortexed in a solvent system, dissolved by ultrasound, and prepared into a solution at a corresponding concentration, which was prepared just before use (the solvent system was composed of 5% Solutol HS 15, 5% DMSO and 90% physiological saline).
BABL/c mice or SD rats were randomly divided into: normal control group, model control group, dexamethasone group (0.72 mg/kg), and the respective test compound groups (one group for each dose), 10 mice in each group; 6 rats in each group.
Sensitization of rats: On Day 1 and Day 8, the model control group and the respective drug administration groups were intraperitoneally injected with 1 ml of 10% OVA sensitizing solution, and the normal group was intraperitoneally injected with an equal volume of normal saline.
Rat: from Day 15, the dexamethasone group and the respective test compound groups were intraperitoneally injected, 20 minutes before challenge, with the corresponding drugs with an injection volume of 0.3 ml/100 g; the model control group was intraperitoneally injected, 20 minutes before challenge, with an equal volume of solvent system; and the normal control group was not treated. Administration was conducted for 7 consecutive days. […]
The rat was anesthetized with 10% urethane at 1.3 ml/100 g volume, and the left lung tissue was taken and fixed in 4% neutral formaldehyde, paraffin-embedded according to routine operation, sectioned for HE staining. […] NIS-Elements D 3.2 software was used to manually integrate and measure the total area of lung tissue sections and the inflammation area under all fields of view, the total areas under each field of view were accumulated, and the percentage of the cumulative area of inflammation in the total area was calculated, wherein the percentage of inflammation area=cumulative area of inflammation/total area×100%.
All data were expressed as mean±standard deviation (x±s), and the data were processed by SPSS 20.0 statistical software. […]

[1] = intraperitoneal injection, vs model group, P<0.05, 0.01

N#Cc1ccc(NC2(C(=O)N3CCN(c4ccc(C(F)(F)F)cc4)CC3)CCCC2)cc1 [Compound 1, 4-((1-(4-(4-(trifluoromethyl)phenyl)piperazine-1-carbonyl)cyclopentyl)amino)benzonitrile]
lung tissue inflammation and inflammatory cell infiltration around the airway (HE x40) (compared with the model group): significant improvement | airway inflammation score [1]: significantly decreased | lung tissue inflammation area [1]: significantly decreased
